# Data taken from patent US6184238A, “N-hydroxyurea derivative and pharmaceutical composition containing the same” (Nikken Chemicals Co., Ltd., priority 1996, dated 2001).
# Like-named read-outs stand apart in the source and are kept apart here.
# What was measured:
# Thromboxane synthase = molecular target: T1, Thromboxane synthase (Homo sapiens, UniProt P24557); assay: Thromboxane synthase inhibitory activity (thromboxane B2 production, human platelet microsomes); type: biochemical; conditions: prostaglandin H2 added, pH 7.5, read-out: TxSI IC50 (inhibition of thromboxane B2 production)
# T1 construct: Human platelet microsomes were used; from tissue; host or cells: human platelet microsomes
# T1 sequence (P24557 1-533): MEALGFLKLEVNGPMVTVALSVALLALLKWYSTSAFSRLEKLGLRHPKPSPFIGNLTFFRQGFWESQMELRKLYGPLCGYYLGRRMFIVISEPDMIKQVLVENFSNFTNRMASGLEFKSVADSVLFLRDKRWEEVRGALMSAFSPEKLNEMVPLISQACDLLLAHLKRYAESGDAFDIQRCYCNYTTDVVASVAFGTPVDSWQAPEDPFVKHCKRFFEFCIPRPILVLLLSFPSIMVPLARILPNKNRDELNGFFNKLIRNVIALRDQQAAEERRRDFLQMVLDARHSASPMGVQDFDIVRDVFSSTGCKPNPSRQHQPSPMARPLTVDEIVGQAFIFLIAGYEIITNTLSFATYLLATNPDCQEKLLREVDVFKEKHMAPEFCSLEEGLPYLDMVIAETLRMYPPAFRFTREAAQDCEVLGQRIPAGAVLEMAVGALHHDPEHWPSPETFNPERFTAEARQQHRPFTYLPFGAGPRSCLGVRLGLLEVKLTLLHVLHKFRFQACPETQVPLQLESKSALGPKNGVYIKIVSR
# Experimental: (Test of Thromboxane synthase Inhibitory Activity)
# Human platelet microsomes were used and a test performed using as an indicator the amount of production of the thromboxane A2 stable metabolite thromboxane B2. A buffer solution (20 mM tris-HCl buffer solution, 1 mM EDTA, pH 7.5) containing human platelet microsomes (50 μg protein/ ml) and the test compound (final concentration of 10^-6 M) was stirred, then incubated at 0° C. for 30 minutes, followed by adding prostaglandin H2 (100 ng/2 μl). This was made acidic to stop the reaction, then neutralized with 1M Tris-base, then centrifuged at 3000 rpm for 20 minutes. The amount of the thromboxane B2 in the supernatant was measured by the EIA method (Cayman Co. kit).
# As the test compound, the compounds 1, 6, 10, 11, 18 to 21, 24 to 27, 35, 40, 41, 44, and 45 were used for the test.
# Lipoxygenase = molecular target: T2, Lipoxygenase (Rattus norvegicus, UniProt P12527); assay: Lipoxygenase inhibitory activity (leukotriene B4 production, rat polymorphonuclear leukocytes); type: cell-based
# T2 construct: Using rat polymorphonuclear leukocytes; endogenous in cells; host or cells: casein-elicited peritoneal polymorphonuclear leukocytes of male Wistar rats
# T2 sequence (P12527 1-673): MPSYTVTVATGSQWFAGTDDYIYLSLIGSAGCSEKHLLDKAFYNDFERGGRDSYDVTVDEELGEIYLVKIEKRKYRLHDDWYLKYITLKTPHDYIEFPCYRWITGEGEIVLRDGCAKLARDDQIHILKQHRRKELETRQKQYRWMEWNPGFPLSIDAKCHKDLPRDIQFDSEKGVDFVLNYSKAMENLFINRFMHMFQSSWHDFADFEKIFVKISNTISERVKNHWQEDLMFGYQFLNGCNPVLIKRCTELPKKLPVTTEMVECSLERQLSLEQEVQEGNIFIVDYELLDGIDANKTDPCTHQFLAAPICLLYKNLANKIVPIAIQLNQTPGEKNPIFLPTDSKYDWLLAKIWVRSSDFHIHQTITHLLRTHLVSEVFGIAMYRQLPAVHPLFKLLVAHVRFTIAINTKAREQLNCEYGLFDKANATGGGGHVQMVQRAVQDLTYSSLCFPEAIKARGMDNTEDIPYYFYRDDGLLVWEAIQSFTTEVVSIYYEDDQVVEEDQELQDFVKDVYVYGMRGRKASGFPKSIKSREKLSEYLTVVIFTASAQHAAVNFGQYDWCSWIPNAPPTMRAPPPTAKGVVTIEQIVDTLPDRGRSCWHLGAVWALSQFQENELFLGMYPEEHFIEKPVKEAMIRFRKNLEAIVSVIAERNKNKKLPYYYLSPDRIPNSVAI
# Experimental: (Test of Lipoxygenase Inhibitory Activity)
# Using rat polymorphonuclear leukocytes, a test was conducted using as an indicator the amount of production of leukotriene B4. Wistar male rats (Japan Clea) were intraperitoneally administered with 12% sodium casein. After 16 hours, the peritoneal cavities were lavaged and the polymorphonuclear leukocytes were recovered. The polymorphonuclear leukocytes thus obtained were suspended in a phosphate buffer (137 mM NaCl, 3 mM KCl, 8 mM Na2 HPO4, 2 mM KH2 PO4) (2.5×10^5 cells/0.4 ml), then the test compound (final concentration 10^-5 M) was added and incubation performed for 10 minutes at 37° C. then a calcium solution (10 mM CaCl2, 0.86% NaCl) 0.1 ml was added and incubation performed for 5 minutes, then 1.25 μl of calcium ionophore (20 μm, A-23187) was added and the reaction started. Five minutes after the addition, 250 μl of methanol was added to stop the reaction. After the reaction was stopped, the result was centrifuged for 20 minutes (4° C., 3000 rpm), then the amount of leukotriene B4 in the supernatant was measured by the EIA method (Cayman Co. kit).
# As the test compound, the same compounds as in Test Example 1 were used for the test.
# Crj-ICR male mice = assay: Acute toxicity test; type: in vivo, mouse; conditions: intraperitoneal, dosages of up to 1000 mg/kg, 7 days observation
# Experimental: Crj-ICR male mice (7 weeks old, five mice to a group) were used. The test compound (Compounds 9, 26, and 33) was suspended in 0.5% sodium carboxymethylcellulose and administered intraperitoneally at a ratio of 10 ml/kg. The survival of the animals was observed up until 7 days after administration.
# [1] = tested on: Antigen-Induced Bronchoconstriction Model of Guinea Pig; assay: Antigen-induced bronchoconstriction model of guinea pig (Konzett-Rossler method); type: in vivo; conditions: Cavia porcellus, 1 h; guinea pigs sensitized by ovalbumin; oral; one hour after administration; read-out: Suppression of respiratory constriction (ED50)
# Experimental: (Pharmacological Activity on Antigen-Induced Bronchoconstriction Model of Guinea Pig)
# Guinea pigs sensitized by ovalbumin were used and orally administered with the test compound suspended in 5% gum arabic. The activity for inhibiting antigen-induced bronchoconstriction after one hour after administration was measured by the Konzett-Rossler method.
# Each of the sensitized guinea pigs was anesthesized by 35 mg/kg pentobarbital, a cannula was inserted into the respiratory tract and connected to an artificial respirator, a cannula was inserted into the jugular vein, and treatment was performed by 5 mg/kg suxamethonium and […] mepyramine. Next, the guinea pig was inhaled a nebulized ovalbumin to cause bronchoconstriction and the activity in inhibiting bronchoconstriction was found from the ratio of the amount of overflow volume to the detector to the amount of air blown volume from the artificial respirator.
# As the test compound, the Compounds 19, 26, and 33 were used. As the control, the thromboxane synthase inhibitor OKY-046 and the 5-lipoxygenaseinhibitor A-64077 were used.
# [2] = rat polymorphonuclear leukocytes, calcium ionophore A-23187, 37° C., read-out: LTBI IC50 (inhibition of leukotriene B4 production)
structure (smiles),measurement,setting,value
"NC(=O)N(O)CCCCCCCCCCCCn1c(-c2cccnc2)cc2ccccc21 [Compound 1, N-Hydroxy-N-[12-[1-[2-(3-pyridyl)indolyl]]dodecyl]urea]",IC50,Thromboxane synthase,3 nM
same,IC50,Lipoxygenase; [2],6 nM
"NC(=O)N(O)CCCCCCCCn1c(-c2cccnc2)cc2ccccc21 [Compound 6, N-Hydroxy-N-[8-[1-[2-(3-pyridyl)indolyl]]octyl]urea]",IC50,Thromboxane synthase,0.7 nM
same,IC50,Lipoxygenase; [2],10 nM
"NC(=O)N(O)CCCCCCn1c(-c2cccnc2)c(Cl)c2cc(Cl)ccc21 [Compound 9, N-[6-[1-[3,5-dichloro-2-(3-pyridyl)indolyl]]hexyl]-N-hydroxyurea]",Deaths (acute toxicity),Crj-ICR male mice,no deaths
"Cc1c(-c2cccnc2)n(CCCCCCN(O)C(N)=O)c2ccc(Cl)cc12 [Compound 10, N-[6-[1-[5-Chloro-3-methyl-2-(3-pyridyl)indolyl]]hexyl]-N-hydroxyurea]",IC50,Thromboxane synthase,0.7 nM
same,IC50,Lipoxygenase; [2],30 nM
"NC(=O)N(O)CCCCCCCCCCn1c(-c2cccnc2)cc2ccccc21 [Compound 11, N-hydroxy-N-[10-[1-[2-(3-pyridyl)indolyl]]decyl]urea]",IC50,Thromboxane synthase,0.8 nM
same,IC50,Lipoxygenase; [2],9 nM
"NC(=O)N(O)CCCCCCn1cc(Cc2cccnc2)c2ccccc21 [Compound 18, N-Hydroxy-N-[6-[1-[3-(3-pyridylmethyl)indolyl]]hexyl]urea]",IC50,Thromboxane synthase,300 nM
same,IC50,Lipoxygenase; [2],100 nM
"NC(=O)N(O)CCn1cc(-c2cccnc2)c2ccccc21 [Compound 19, N-Hydroxy-N-[2-[1-[3-(3-pyridyl)indolyl]]ethyl]urea]",IC50,Thromboxane synthase,15 nM
same,ED50,[1],30 mg/kg
same,IC50,Lipoxygenase; [2],300 nM
"Cc1c(-c2cccnc2)c2ccccc2n1CCN(O)C(N)=O [Compound 20, N-Hydroxy-N-[2-[1-[2-methyl-3-(3-pyridyl)indolyl]]ethyl]urea]",IC50,Thromboxane synthase,5 nM
same,IC50,Lipoxygenase; [2],1500 nM
"NC(=O)N(O)CCCCCCn1cc(-c2cccnc2)c2ccccc21 [Compound 21, N-Hydroxy-N-[6-[1-[3-(3-pyridyl)indolyl]]hexyl]urea]",IC50,Thromboxane synthase,15 nM
same,IC50,Lipoxygenase; [2],40 nM
"Cn1c(-c2cccnc2)c(C=CCN(O)C(N)=O)c2ccccc21 [Compound 24, N-Hydroxy-N-[3-[3-[1-methyl-2-(3-pyridyl)indolyl]]-2-propenyl]urea]",IC50,Thromboxane synthase,40 nM
same,IC50,Lipoxygenase; [2],4000 nM
"NC(=O)N(O)CC=Cc1cn(Cc2cccnc2)c2ccccc12 [Compound 25, N-hydroxy-N-[3-[3-[1-(3-pyridylmethyl)indolyl]]-2-propenyl]urea]",IC50,Thromboxane synthase,150 nM
same,IC50,Lipoxygenase; [2],200 nM
"NC(=O)N(O)Cc1cn(Cc2cccnc2)c2ccccc12 [Compound 26, N-Hydroxy-N-[3-[1-(3-pyridylmethyl)indolyl]methyl]urea]",IC50,Thromboxane synthase,700 nM
same,ED50,[1],75 mg/kg
same,IC50,Lipoxygenase,3000 nM
"NC(=O)N(O)Cc1ccc(Cc2cn(Cc3cccnc3)c3ccccc23)cc1 [Compound 27, N-Hydroxy-N-[4-[3-[1-(3-pyridylmethyl)indolyl]]methylbenzyl]urea]",IC50,Thromboxane synthase,70 nM
same,IC50,Lipoxygenase; [2],100 nM
"NC(=O)N(O)Cc1ccc2c(ccn2Cc2cccnc2)c1 [Compound 33, N-hydroxy-N-[5-[1-(3-pyridylmethyl)indolyl]methyl]urea]",ED50,[1],30 mg/kg
"Cc1c(-c2cccnc2)n(C)c2ccc(CN(O)C(N)=O)cc12 [Compound 35, N-[5-[1,3-Dimethyl-2-(3-pyridyl)indolyl]methyl]-N-hydroxyurea]",IC50,Thromboxane synthase,40 nM
same,IC50,Lipoxygenase; [2],2000 nM
"Cn1cc(-c2cccnc2)c2cc(CN(O)C(N)=O)ccc21 [Compound 40, N-Hydroxy-N-[5-[1-methyl-3-(3-pyridyl)indolyl]methyl]urea]",IC50,Thromboxane synthase,30 nM
same,IC50,Lipoxygenase; [2],700 nM
"Cc1c(-c2cccnc2)n(C)c2ccc(C(C)N(O)C(N)=O)cc12 (stereo not shown) [Compound 41, N-[1-[5-[1,3-Dimethyl-2-(3-pyridyl)indolyl]]ethyl]-N-hydroxyurea]",IC50,Thromboxane synthase,70 nM
same,IC50,Lipoxygenase; [2],2000 nM
"Cc1c(-c2cccnc2)n(C)c2ccc(C#CC(C)N(O)C(N)=O)cc12 (stereo not shown) [Compound 44, N-[2-[4-[5-[1,3-dimethyl-2-(3-pyridyl)indolyl]]-3-butynyl]]-N-hydroxyurea]",IC50,Thromboxane synthase,30 nM
same,IC50,Lipoxygenase; [2],600 nM
"CC(c1ccc2c(c1)c(-c1cccnc1)cn2C)N(O)C(N)=O (stereo not shown) [Compound 45, N-Hydroxy-N-[1-[5-[1-methyl-3-(3-pyridyl)indolyl]]ethyl]urea]",IC50,Thromboxane synthase,60 nM
same,IC50,Lipoxygenase; [2],2500 nM
"CC(c1cc2ccccc2s1)N(O)C(N)=O (stereo not shown) [Compound A-64077, reference compound]",ED50,[1],300 mg/kg
"O=C(O)/C=C/c1ccc(Cn2ccnc2)cc1 [OKY-046, reference compound]",ED50,[1],260 mg/kg
